Data from PMC2577671, “Evaluation of Dimebon in cellular model of Huntington's disease” (Molecular Neurodegeneration, 2008).

Tests used:
Assay in all cases: biochemical
Parameters in all cases: MDS Pharma Lead Profiling screen, binding assays, per cent inhibition, duplicate
Muscarinic M2 = molecular target: T1, Muscarinic M2 (Homo sapiens, UniProt P08172)
T1 construct: gene CHRM2
Protocol: (§1) The activity of Dimebon against selected set of biochemical targets was performed by MDS Pharma Services . The Dimebon was provided to MDS Pharma as dry powder, dissolved in DMSO and tested in 10 μM concentrations. The standard Lead Profiling + CYP450 screen was performed according to MDS Pharma specifications with additional custom-chosen targets added to the screen as indicated. To further understand potential mechanisms responsible for clinical effects of Dimebon, we evaluated Dimebon against a set of selected biochemical targets. Dimebon evaluation was performed by MDS Pharma Services . The standard Lead Profiling + CYP450 screen was performed with additional custom-selected targets added to the screen. The results of the screen obtained at 10 μM of Dimebon are provided as Additional File 3. […] Low affinity (50–60% inhibition) interactions were also observed for CYP450, 2C19 receptor, voltage-gated L-type Ca^2+ channel, Dopamine D4.2 receptor, and Serotonin 5-HT1 receptor. […] Supplementary file 1750-1326-3-15-S3.pdf: Additional file 3 The results of Dimebon screening against a selected set of biochemical targets. The complete results obtained by MDS Pharma with a selected list of biochemical targets using 10 μM of Dimebon as a probe. The Cat numbers refer to the MDS Pharma Services assay specification. The receptors and species are listed. Dimebon was tested at 10 μM concentratio in duplicate. The % inhibition by Dimebon is shown numerically and graphically for each receptor. Significant targets (defined as % inhibition > 50%) are highlighted in yellow. Click here for file

Serotonin 5-HT1B = molecular target: T2, Serotonin 5-HT1B (Rattus norvegicus, UniProt P28564)
T2 construct: gene Htr1b
Protocol: as §1

Adrenergic beta2 = molecular target: T3, Adrenergic beta2 (Homo sapiens, UniProt P07550)
T3 construct: gene ADRB2
Protocol: as §1

Adenosine A1 = molecular target: T4, Adenosine A1 (Homo sapiens, UniProt P30542)
T4 construct: gene ADORA1
Protocol: as §1

Serotonin 5-HT4 = molecular target: T5, Serotonin 5-HT4 (Cavia porcellus, UniProt O70528)
T5 construct: gene HTR4
Protocol: as §1

Opiate delta (OP1, DOP) = molecular target: T6, Opiate delta (OP1, DOP) (Homo sapiens, UniProt P41143)
T6 construct: gene OPRD1
Protocol: as §1

Serotonin 5-HT2B = molecular target: T7, Serotonin 5-HT2B (Homo sapiens, UniProt P41595)
T7 construct: gene HTR2B
Protocol: as §1

α1A-Adrenergic receptor = molecular target: T8, α1A-Adrenergic receptor (Rattus norvegicus, UniProt P43140)
T8 construct: gene Adra1a
Protocol: as §1

Prostanoid EP4 = molecular target: T9, Prostanoid EP4 (Homo sapiens, UniProt P35408)
T9 construct: gene PTGER4
Protocol: as §1

Serotonin 5-HT1A = molecular target: T10, Serotonin 5-HT1A (Homo sapiens, UniProt P08908)
T10 construct: gene HTR1A
Protocol: as §1

[1] = molecular target: T11, Epidermal Growth Factor (EGF) (Homo sapiens, UniProt P00533)
T11 construct: gene EGFR
Protocol: as §1

Muscarinic M3 = molecular target: T12, Muscarinic M3 (Homo sapiens, UniProt P20309)
T12 construct: gene CHRM3
Protocol: as §1

Histamine H3 = molecular target: T13, Histamine H3 (Homo sapiens, UniProt Q9Y5N1)
T13 construct: gene HRH3
Protocol: as §1

Bradykinin B2 = molecular target: T14, Bradykinin B2 (Homo sapiens, UniProt P30411)
T14 construct: gene BDKRB2
Protocol: as §1

[2] = molecular target: T15, Transporter, Serotonin (SERT) (Homo sapiens, UniProt P31645)
T15 construct: gene SLC6A4
Protocol: as §1

α1D-Adrenergic receptor = molecular target: T16, α1D-Adrenergic receptor (Homo sapiens, UniProt P25100)
T16 construct: gene ADRA1D
Protocol: as §1

[3] = molecular target: T17, Transporter, Dopamine (DAT) (Homo sapiens, UniProt Q01959)
T17 construct: gene SLC6A3
Protocol: as §1

Bradykinin B1 = molecular target: T18, Bradykinin B1 (Homo sapiens, UniProt P46663)
T18 construct: gene BDKRB1
Protocol: as §1

Glucocorticoid = molecular target: T19, Glucocorticoid (Homo sapiens, UniProt P04150)
T19 construct: gene NR3C1
Protocol: as §1

Adrenergic beta1 = molecular target: T20, Adrenergic beta1 (Homo sapiens, UniProt P08588)
T20 construct: gene ADRB1
Protocol: as §1

Histamine H1 receptor = molecular target: T21, Histamine H1 receptor (Homo sapiens, UniProt P35367)
T21 construct: gene HRH1
Protocol: as §1

T3 sequence (P07550 whole entry): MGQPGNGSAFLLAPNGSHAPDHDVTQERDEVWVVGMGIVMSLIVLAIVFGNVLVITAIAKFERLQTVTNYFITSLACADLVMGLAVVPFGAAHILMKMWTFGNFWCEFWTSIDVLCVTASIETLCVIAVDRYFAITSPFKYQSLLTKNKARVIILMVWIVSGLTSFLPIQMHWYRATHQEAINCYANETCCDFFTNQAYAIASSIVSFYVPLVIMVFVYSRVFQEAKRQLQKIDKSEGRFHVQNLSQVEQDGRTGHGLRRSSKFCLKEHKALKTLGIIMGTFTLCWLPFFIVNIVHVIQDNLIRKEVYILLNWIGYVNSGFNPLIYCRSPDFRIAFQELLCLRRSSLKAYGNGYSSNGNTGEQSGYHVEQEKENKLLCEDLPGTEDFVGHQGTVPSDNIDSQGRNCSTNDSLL
T6 sequence (P41143 whole entry): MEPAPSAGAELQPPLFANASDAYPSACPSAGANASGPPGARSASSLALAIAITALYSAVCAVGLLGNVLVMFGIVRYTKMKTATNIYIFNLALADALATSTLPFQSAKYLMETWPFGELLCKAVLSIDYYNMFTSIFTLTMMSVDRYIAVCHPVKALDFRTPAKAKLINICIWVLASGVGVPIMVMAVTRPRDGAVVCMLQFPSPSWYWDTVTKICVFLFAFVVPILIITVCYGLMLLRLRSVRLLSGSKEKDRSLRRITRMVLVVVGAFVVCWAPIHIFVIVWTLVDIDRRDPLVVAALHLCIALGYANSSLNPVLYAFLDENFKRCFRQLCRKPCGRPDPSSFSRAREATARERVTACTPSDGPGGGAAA
T5 sequence (O70528 whole entry): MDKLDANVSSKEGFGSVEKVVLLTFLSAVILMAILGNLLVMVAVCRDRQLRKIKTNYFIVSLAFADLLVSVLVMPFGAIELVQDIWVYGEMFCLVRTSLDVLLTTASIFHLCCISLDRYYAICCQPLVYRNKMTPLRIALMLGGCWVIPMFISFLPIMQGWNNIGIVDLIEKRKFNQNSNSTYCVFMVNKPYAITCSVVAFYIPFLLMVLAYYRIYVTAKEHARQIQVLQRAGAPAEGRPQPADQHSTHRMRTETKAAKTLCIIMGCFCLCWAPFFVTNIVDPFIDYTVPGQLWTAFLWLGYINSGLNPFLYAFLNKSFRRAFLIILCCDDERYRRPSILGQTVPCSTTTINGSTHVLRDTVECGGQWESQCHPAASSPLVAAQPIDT
T7 sequence (P41595 whole entry): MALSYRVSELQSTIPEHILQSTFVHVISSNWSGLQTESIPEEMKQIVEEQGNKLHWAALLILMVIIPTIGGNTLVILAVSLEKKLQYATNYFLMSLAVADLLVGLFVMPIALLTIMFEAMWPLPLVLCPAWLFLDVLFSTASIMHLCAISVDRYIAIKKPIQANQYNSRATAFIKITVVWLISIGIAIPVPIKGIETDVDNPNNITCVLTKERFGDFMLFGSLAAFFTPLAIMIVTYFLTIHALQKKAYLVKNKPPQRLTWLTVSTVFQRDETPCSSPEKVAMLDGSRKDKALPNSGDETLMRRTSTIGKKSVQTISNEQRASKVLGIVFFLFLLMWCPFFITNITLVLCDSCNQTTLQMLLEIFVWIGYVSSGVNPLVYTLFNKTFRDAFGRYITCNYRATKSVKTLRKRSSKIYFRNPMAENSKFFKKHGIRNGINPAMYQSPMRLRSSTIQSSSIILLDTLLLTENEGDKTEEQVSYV
T2 sequence (P28564 whole entry): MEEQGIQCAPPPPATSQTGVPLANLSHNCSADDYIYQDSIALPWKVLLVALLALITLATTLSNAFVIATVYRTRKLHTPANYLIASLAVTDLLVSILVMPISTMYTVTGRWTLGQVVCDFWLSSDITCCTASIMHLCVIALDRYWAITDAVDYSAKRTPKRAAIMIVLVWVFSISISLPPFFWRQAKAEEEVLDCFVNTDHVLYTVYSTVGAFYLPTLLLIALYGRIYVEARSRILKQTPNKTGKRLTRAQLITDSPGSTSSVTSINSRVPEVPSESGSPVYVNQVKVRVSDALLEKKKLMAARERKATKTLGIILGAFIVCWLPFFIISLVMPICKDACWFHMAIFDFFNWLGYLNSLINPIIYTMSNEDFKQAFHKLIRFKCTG
T17 sequence (Q01959 whole entry): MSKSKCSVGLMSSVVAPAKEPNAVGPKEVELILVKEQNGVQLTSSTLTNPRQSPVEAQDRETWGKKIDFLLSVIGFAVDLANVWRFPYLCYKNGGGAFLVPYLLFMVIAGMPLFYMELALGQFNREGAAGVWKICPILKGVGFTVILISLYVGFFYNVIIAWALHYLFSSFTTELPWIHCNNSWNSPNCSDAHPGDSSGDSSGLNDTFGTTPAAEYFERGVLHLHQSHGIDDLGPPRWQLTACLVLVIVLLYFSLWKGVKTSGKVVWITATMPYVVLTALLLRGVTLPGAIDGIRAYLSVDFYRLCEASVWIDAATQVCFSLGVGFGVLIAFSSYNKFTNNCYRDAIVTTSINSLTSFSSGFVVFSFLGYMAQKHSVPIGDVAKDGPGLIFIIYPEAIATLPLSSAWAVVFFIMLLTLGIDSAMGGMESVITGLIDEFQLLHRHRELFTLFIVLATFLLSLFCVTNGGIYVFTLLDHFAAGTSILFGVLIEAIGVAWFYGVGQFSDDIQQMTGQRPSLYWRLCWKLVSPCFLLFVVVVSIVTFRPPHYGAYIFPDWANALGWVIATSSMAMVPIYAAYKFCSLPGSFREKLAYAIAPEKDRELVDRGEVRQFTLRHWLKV
T19 sequence (P04150 whole entry): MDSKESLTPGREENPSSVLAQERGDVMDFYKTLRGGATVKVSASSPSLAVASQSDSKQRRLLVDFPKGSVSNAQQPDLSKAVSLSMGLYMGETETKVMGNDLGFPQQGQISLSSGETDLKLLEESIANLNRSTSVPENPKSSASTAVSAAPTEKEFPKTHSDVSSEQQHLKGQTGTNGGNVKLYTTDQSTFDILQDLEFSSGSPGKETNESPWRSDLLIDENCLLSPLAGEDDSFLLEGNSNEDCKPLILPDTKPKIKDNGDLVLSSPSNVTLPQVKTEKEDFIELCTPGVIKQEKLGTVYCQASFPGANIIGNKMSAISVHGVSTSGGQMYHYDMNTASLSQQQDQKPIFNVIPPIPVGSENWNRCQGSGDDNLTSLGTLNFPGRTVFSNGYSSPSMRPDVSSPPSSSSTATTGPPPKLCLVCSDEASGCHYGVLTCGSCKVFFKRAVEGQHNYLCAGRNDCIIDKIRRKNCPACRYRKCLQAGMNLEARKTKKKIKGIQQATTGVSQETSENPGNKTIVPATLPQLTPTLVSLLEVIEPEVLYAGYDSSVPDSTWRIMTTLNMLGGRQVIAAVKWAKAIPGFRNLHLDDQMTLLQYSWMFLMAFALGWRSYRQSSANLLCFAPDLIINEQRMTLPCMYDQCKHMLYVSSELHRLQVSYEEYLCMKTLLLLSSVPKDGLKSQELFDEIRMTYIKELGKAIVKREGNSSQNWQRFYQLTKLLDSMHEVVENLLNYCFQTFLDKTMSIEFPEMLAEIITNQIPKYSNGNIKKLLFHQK
T10 sequence (P08908 whole entry): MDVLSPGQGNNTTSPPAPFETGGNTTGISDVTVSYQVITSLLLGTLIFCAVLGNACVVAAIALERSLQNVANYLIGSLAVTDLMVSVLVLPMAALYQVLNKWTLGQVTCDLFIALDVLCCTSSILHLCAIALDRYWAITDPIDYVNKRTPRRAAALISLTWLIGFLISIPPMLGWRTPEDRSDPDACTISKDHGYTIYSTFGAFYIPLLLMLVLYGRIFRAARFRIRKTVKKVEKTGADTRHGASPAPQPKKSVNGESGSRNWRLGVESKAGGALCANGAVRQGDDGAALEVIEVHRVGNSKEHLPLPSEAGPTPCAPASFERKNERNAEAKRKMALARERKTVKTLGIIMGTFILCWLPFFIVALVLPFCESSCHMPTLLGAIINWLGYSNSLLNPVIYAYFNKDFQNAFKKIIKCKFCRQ
T20 sequence (P08588 whole entry): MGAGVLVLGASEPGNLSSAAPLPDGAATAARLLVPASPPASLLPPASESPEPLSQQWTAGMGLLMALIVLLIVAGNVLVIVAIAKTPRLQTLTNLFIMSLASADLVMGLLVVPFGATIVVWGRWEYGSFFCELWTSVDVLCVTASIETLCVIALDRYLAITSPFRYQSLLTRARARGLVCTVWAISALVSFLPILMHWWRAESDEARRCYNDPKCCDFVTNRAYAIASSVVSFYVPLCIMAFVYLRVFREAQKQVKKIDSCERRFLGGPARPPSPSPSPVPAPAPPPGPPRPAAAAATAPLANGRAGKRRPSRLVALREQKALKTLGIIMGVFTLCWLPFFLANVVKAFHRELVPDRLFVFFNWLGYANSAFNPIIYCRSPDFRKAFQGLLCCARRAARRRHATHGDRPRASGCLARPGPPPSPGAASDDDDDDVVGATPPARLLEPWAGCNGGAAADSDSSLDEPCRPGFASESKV
T21 sequence (P35367 whole entry): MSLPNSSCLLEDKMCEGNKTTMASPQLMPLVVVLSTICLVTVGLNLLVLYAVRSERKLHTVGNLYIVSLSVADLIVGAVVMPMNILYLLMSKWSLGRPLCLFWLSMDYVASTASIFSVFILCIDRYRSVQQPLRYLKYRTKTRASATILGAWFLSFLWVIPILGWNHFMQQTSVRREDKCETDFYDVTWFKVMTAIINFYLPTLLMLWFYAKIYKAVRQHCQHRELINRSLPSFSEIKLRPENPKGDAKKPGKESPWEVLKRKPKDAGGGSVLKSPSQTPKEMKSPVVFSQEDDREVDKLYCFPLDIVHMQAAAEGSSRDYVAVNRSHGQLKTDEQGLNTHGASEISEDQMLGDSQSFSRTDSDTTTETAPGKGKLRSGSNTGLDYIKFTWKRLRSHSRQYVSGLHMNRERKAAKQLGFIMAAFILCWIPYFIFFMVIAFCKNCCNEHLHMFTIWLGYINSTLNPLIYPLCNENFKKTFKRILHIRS

## Cc1ccc2c(c1)c1c(n2CCc2ccc(C)nc2)CCN(C)C1 [Dimebon, 2,3,4,5-Tetrahydro-2,8-dimethyl-5-(2-(6-methyl-3-pyridyl)ethyl)-1H-pyrido(4,3-b)indole]
Muscarinic M2
  inhibition at 10 µM: 8%
Serotonin 5-HT1B
  inhibition at 10 µM: 48%
Adrenergic beta2
  inhibition at 10 µM: 14%
Adenosine A1
  inhibition at 10 µM: 0%
Serotonin 5-HT4
  inhibition at 10 µM: 17%
Opiate delta (OP1, DOP)
  inhibition at 10 µM: 0%
Serotonin 5-HT2B
  inhibition at 10 µM: 74%
α1A-Adrenergic receptor
  inhibition at 10 µM: 96%
Prostanoid EP4
  inhibition at 10 µM: 1%
Serotonin 5-HT1A
  inhibition at 10 µM: 22%
[1]
  inhibition at 10 µM: 1%
Muscarinic M3
  inhibition at 10 µM: 7%
Histamine H3
  inhibition at 10 µM: -4%
Bradykinin B2
  inhibition at 10 µM: -2%
[2]
  inhibition at 10 µM: -7%
α1D-Adrenergic receptor
  inhibition at 10 µM: 95%
[3]
  inhibition at 10 µM: 13%
Bradykinin B1
  inhibition at 10 µM: -9%
Glucocorticoid
  inhibition at 10 µM: 3%
Adrenergic beta1
  inhibition at 10 µM: -7%
Histamine H1 receptor
  inhibition at 10 µM: 101%
